What follows are compounds tested on vascular smooth muscles (thoracic aorta) (assay: Calcium antagonistic action in vascular smooth muscles (spiral piece of thoracic aorta, Ca2+ dose-reaction curve in presence of KCl)). Details: isolated rat aorta spiral piece, 37° C.; KCl 5×10^-2 M; CaCl2 10^-4 to 3×10^-2 M; test compound 3×10^-7 to 10^-5 M; Van Rossum method; 5 samples.
Type: cell-based, Male Wistar rats
Experimental: Male Wistar rats weighing about 250 g were anesthetized with ether, hit hard in the occipital region, and the both common carotid arteries were cut to let blood, and the thoracic aorta was removed. Fat tissues depositing on the extracted blood vessel were removed, and a spiral piece of 2 mm×50 mm was prepared.
This spiral piece of aort was kept at 37° C., and was suspended in an organ bath containing Ca^2+ --free Krebs--Henseleit solution ventilated with mixed gas of 95% O2 and 5% CO2 and its contraction reaction was measured in the following method by way of an isotonic transducer.
In the first place, to the spiral piece deprived of Ca^2+, CaCl2 solution of 10^-4 to 3×10^-2 M was comulatively added in the presence of KCl of 5×10^-2 M, and the dose-reaction curve by Ca^2+ was determined, and after removing Ca^2+ again, the dose-reaction curve by Ca^2+ was determined in the presence of the test compound, and from the difference of these reactions, the pA2 value of Ca^2+ antagonistic action of the test compound was calculated. The concentration of the test compound was 3×10^-7 to 10^-5 M. (The pA2 value was calculated according to the method proposed by Van Rossum, J. M., in Arch. Int. Pharmarcodyn., 143, 299-330, 1963).
`CCOP(=O)(Cc1ccc(C(=O)Nc2ccccc2O)cc1)OCC` [Example 13] was tested, and the “pA2 value of Ca^2+ antagonistic action” value was 6.52 ± 0.10. In the case of `CCOP(=O)(Cc1ccc(C(=O)N(Cc2ccccc2)c2ccccc2)cc1)OCC` [Example 45, 4-diethoxyphosphinylmethyl-N-benzyl-N-phenylbenzamide], the “pA2 value of Ca^2+ antagonistic action” value is reported as 6.75 ± 0.08. With `CCOP(=O)(Cc1ccc(C(=O)N(Cc2ccc([N+](=O)[O-])cc2)c2ccccc2)cc1)OCC` [Example 46] the “pA2 value of Ca^2+ antagonistic action” value was 6.07 ± 0.12. For `CCOP(=O)(Cc1ccc(C(=O)N(Cc2ccccc2)c2ccc(OC)cc2)cc1)OCC` [Example 56, 4-diethoxyphosphinylmethyl-N-benzyl-N-(4-methoxyphenyl)benzamide], the “pA2 value of Ca^2+ antagonistic action” value was 6.99 ± 0.11. With `CCOP(=O)(Cc1cccc(C(=O)N(Cc2ccc(C(=O)OC)cc2)c2ccccc2)c1)OCC` [Example 74] the “pA2 value of Ca^2+ antagonistic action” value was 6.50 ± 0.09.
